Holding throughout (test): DTP human tumour cell line panel, 48 h
For experiment [1], the system named is BT-549 breast.
The subject of experiment [2] is TK-10 renal.
For experiment [3], the system named is SNB-19 CNS.
Experiment [4] deals with MCF7 breast.
Experiment [5] deals with DU-145 prostate.
Experiment [6] has as its system DMS 273 small cell lung.
In experiment [7] the test system is HOP-18 NSCLC.
The test system of experiment [8] is XF 498 CNS.
For experiment [9], the system named is DLD-1 colon.
The test system of experiment [10] is SNB-78 CNS.

In general, TGI refers to the concentration at which net growth stops. Higher therefore signals less potent growth arrest. Usually GI50 stands for the concentration giving 50% growth inhibition.

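Five compound concentrations were applied to cells in 96-well plates for 48 hours; endpoints were derived by simple linear interpolation of the resulting dose-response curve. At the GI50, growth is halved. TGI is the concentration that stops growth completely.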

Regarding `CC(=O)O[C@H]1CC[C@@]2(C)[C@@H](CC[C@@H]3[C@@H]2CC(=O)[C@@]2(C)[C@H]3C[C@@H]3CC(C)=CC(=O)[C@@H]32)C1`, the TGI in experiment [1] was 71.2 µM; in [2], > 100 µM; in [3], > 100 µM; in experiment [4] it was > 100 µM; in experiment [5] it was > 100 µM.

Turning to `CCCCCCCCCCCC(=O)[O][Sn]([CH2]CCC)([CH2]CCC)[CH2]CCC`, the GI50 in [1] was 0.0623 µM; in [2] it was 0.0271 µM; in [3], 0.0859 µM; in [4] it was 0.037 µM; in experiment [5], 0.0544 µM. Moreover, the TGI in experiment [1] amounted to 0.184 µM; in experiment [2], 0.0677 µM; in experiment [3], 0.228 µM; in experiment [4] it was 0.161 µM; in experiment [5], 0.17 µM.

As to `CCOc1ccc(-n2cc(-c3ccc(N(C)C)cc3)[n+]3c2CCCCC3)cc1`, the GI50 in experiment [1] is 0.406 µM; in experiment [2] it was 0.827 µM; in experiment [3] it was 0.452 µM; in [4], 0.14 µM; in experiment [5] it was 1.82 µM. The TGI in experiment [1] was 29.1 µM; in experiment [2], 49 µM; in experiment [3] it was > 100 µM; in [4], > 100 µM; in experiment [5], > 100 µM.

On to `c1ccc2c(c1)-c1nc3ccccc3cc1C2N1CCOCC1` (stereo unspecified), for which the TGI in [1], in experiment [2], in [3], in experiment [4] and in [5] was > 100 µM each time.

With `Nc1ncnc2c1c(-c1ccc(Oc3ccccc3)cc1)nn2C[C@H]1SSC[C@H]1O`, the GI50 in [1] is 2.18 µM; in [2], 0.289 µM; in [3] it was 0.51 µM; in experiment [4], 0.0465 µM; in experiment [5] it was 1.07 µM. In addition, the TGI in experiment [1] stood at 6.52 µM; in experiment [2] it was 1 µM; in [3], 20.1 µM; in experiment [4], 1.2 µM; in experiment [5] it was 2.37 µM.

For the compound `COc1ccc(-n2cc(-c3ccc(F)cc3)[nH]c2=O)cc1OC`, the GI50 in [1], in [2], in experiment [3], in experiment [4] and in experiment [5] was > 100 µM each time. For the same compound, the TGI in experiment [1], in experiment [2], in experiment [3], in [4] and in [5] was > 100 µM in each case.

Turning to `Cn1c(=O)ccc2cc(C(=O)c3ccccc3)ccc21`, the TGI in [6], in [2], in [3], in [7], in [8] and in experiment [9] was > 100 µM each time.

On to `Cc1cc(=O)[nH]c2c1C(=O)C(=O)C=C2`, for which the GI50 in experiment [1] is 57.8 µM; in experiment [2], 64.1 µM; in experiment [3] it was 42.7 µM; in experiment [4], 29 µM; in experiment [5], 25 µM. Further, the TGI in [1] was > 100 µM; in experiment [2] it was > 100 µM; in experiment [3] it was > 100 µM; in experiment [4] it was 60.6 µM; in experiment [5] it was 53.9 µM.

For the compound `Cn1cc(C2=C(c3cn(CCCN/C(N)=N\[N+](=O)[O-])c4ccccc34)C(=O)NC2=O)c2ccccc21`, the GI50 was 2.1 µM in [1]; 5.87 µM in experiment [2]; 4.4 µM in experiment [3]; 1.15 µM in experiment [4]; 6.75 µM in [5]. Also, the TGI was 9.38 µM in [1]; 19.2 µM in experiment [2]; 19 µM in [3]; > 22.6 µM in experiment [4]; 23.6 µM in [5].

In the case of `Cc1cccc(C)c1NC(=O)/C(CC(=O)CC(c1ccccc1)c1c(O)c2ccccc2oc1=O)=N/O` (stereo unspecified), the total growth inhibition concentration (TGI) in experiment [1], in experiment [2], in experiment [3], in [4] and in experiment [5] was > 100 µM each time.

With `CN=C(NC#N)NCc1ccccc1`, the TGI in experiment [6], in [2], in experiment [3], in experiment [10], in [8] and in [9] was > 100 µM each time.

Consider `NCCCSCC(=O)O`, for which the TGI in [6], in [2], in experiment [3] and in [10] was > 100 µM in each case.

Turning to `CCC1(O)CC(c2ccccc2)N(C)C(c2ccccc2)C1` (stereo unspecified), the TGI in [6], in experiment [2], in [3], in experiment [10] and in experiment [9] was > 100 µM throughout.

Take `O=C(c1ccccc1)C(c1ccccc1)C1(O)C(=O)Nc2ccc(Br)cc21` (stereo unspecified): the TGI in experiment [6], in experiment [2], in experiment [3], in experiment [10] and in experiment [9] was > 100 µM throughout.

Take `O=C1C2Cc3ccccc3CN2C(=O)N1CCN1CCOCC1` (stereo unspecified): the TGI in experiment [6], in [2], in experiment [3] and in experiment [9] was > 100 µM in each case.

Turning to `O=C(Nc1ccc(-n2cc(-c3ccncc3)c(-c3ccc(Cl)c(O)c3)n2)cc1)c1ccc(Cl)c(C(F)(F)F)c1`, the GI50 in experiment [1] was 1.12 µM; in [2], 2.69 µM; in experiment [3], 4.16 µM; in experiment [4] it was 1.92 µM; in experiment [5], 2.7 µM. Also, the TGI was 12.6 µM in experiment [1]; 11.3 µM in experiment [2]; > 100 µM in experiment [3]; 8.6 µM in experiment [4]; > 20.3 µM in [5].

As to `COc1ccc2c(c1)[n+](=O)c(C(=O)C/C(=N\NC(=O)C[N+](C)(C)C)C(=O)Nc1cc(Cl)ccc1Cl)c(C)n2O`, the TGI in experiment [6], in experiment [2], in experiment [3], in experiment [7], in experiment [10] and in [9] was > 100 µM each time.

Source of the values: PubChem BioAssay (NCI).
